Consider one compound from patent US8017350B2, “Glimepiride- and insulin-induced glycosylphosphatidylinositol-specific phospholipase C regulation” (Sanofi-Aventis Deutschland GmbH, priority 2004, dated 2011).

Test [1] relates to GPI-PLC, rat adipocyte plasma membrane/DIGs. The experiment in a line: Inhibition of adipocyte GPI-PLC (plasma membranes, lcDIGs or hcDIGs), substrate AChE. It counts as biochemical.
Test [2] concerns the target PI-PLC, Bacillus cereus (recombinant) (Bacillus cereus, UniProt P14262). The test is described as follows: Inhibition of PI-PLC (B. cereus), cleavage of GPI-protein, TX-114 partitioning. It counts as biochemical. An excerpt:
Human recombinant insulin, PIG41 (disclosed in “Frick, W. et al., (1998) Biochemistry 37, 13421-13436”) and glimepiride (trade name Amaryl) were supplied by the medicinal chemistry and synthesis departments of Aventis Pharma Germany (Frankfurt, Germany). 12-((7-nitrobenz-2-oxa-1,3-diazol-4-yl)amino)dodecanoic acid (NBD-FA) was synthesized as described in Müller et al., (1997) Biochem. Biophys. Acta 1347: 23-39. Collagenase (Worthington, CLS, type I, 250 units/mg) was provided by Biochrom (Berlin, Germany). Lipoprotein lipase (LPL, affinity-purified) from bovine milk, phospholipase A2 (honey bee venom), crude porcine pancreatic lipase (PL), recombinant PC- and PI-PLC (Bacillus cereus), crude PLD (cabbage) and defatted BSA (fraction V) were delivered by SigmalAldrich (Deisenhofen, Germany), crude PI-PLC (rat liver) and proteinase inhibitors were purchased from Roche Molecular Biochemicals (Mannheim, Germany). Recombinant GPI-PLC (Trypanosoma brucei) was obtained from Oxford Glycosystems (Oxford, UK). Inhibitors of PLA2 (AACOCF3) and PLC (U 73122) were from Tocris (Avonmouth, UK). Bisbodipy-C11-PC was bought from Molecular Probes (Eugene, Oreg.). Lipids were purchased from Avanti Polar Lipids (Birmingham, Ala.). […]

Molecules are shown by their SMILES.

Chain of PI-PLC, Bacillus cereus (recombinant) (P14262 32-329 limits assumed): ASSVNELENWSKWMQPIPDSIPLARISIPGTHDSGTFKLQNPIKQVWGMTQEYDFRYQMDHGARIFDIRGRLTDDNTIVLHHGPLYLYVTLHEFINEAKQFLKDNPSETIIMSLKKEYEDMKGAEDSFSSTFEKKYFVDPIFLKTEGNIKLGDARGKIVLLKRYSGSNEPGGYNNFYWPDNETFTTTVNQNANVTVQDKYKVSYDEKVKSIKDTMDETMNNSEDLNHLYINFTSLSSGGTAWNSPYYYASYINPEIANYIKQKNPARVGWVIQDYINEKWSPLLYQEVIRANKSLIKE

For the compound `CCCCCCCCCCCCP1(=O)O[C@@H]2[C@H](O)[C@@H](O)[C@H](O)[C@@H](O)[C@@H]2O1` (some centres unmarked) [GPI-2350, myo-inositol-1,2-cyclo-dodecylphosphonic acid], the inhibition in words result in test [1] and in test [2] was “potent inhibitor” each time.
